Values of other authors, collected in US20140370105A1, “TREATMENT OF INFLAMMATORY BOWEL DISEASE WITH 6-MERCAPTOPURINE” (Teva Pharmaceutical Industries, Ltd., priority 2008, published 2014).

System: inflammatory bowel disease
Details: conventional therapy

Sc1ncnc2nc[nH]c12 [6-MP, 6-mercaptopurine]
time required to be effective / show effect (IBD / Crohn's disease patients): 3-4 months | time required to show any benefit (IBD patients): at least 12 weeks
